US11925667B2, “Engineered therapeutic probiotic system and method” (priority 2018, dated 2024)

Tests used:
Format in all cases: biochemical
[1] = test system: myrosinase Q9 (plant-derived myrosinase orthologue); assay: Myrosinase activity assay (glucose release from sinigrin hydrolysis), Q9
Experimental: (§1) Screening for improved β-thioglucosidase. The activity and stability of myrosinase, a β-thioglucosidase that hydrolyzes glucosinolate to sulforaphane, varies at differing pH and temperature; in a preferred embodiment the selected enzyme needs to function under physiological colorectal conditions. The healthy colon pH averages 6.6, while it is 7.0 and 6.7 in patients with adenoma and carcinoma, respectively. In addition, the temperature of the human intestinal tract ranges from 36° C. to 40° C. depending on the individual's metabolic state. In the illustrative example five plant-derived myrosinase orthologues with minimal glycosylation sites and the absence of the co-factor-binding sites using the BLAST search and the Enzyme Function Initiative-Enzyme Similarity Tool (EFI-EST), are compared to the well-characterized myrosinases from Brevicoryne brassicae (BMY1) and Arabidopsis thaliana (TGG1) (FIG. 2a and FIG. 7).
(§2) Gene cloning, protein expression and purification. Myrosinase genes are optimized for E. coli expression and cloned into the pET28b expression vector. The plasmids are transformed into E. coli BL21 (DE3) cultured in lysogeny broth (LB) (BD, Le Pont de Claix, France) at 37° C., 225 rpm to OD600 0.6 followed by 0.5 mM isopropyl β-D-1-thiogalactopyranoside (IPTG) induction at 16° C., 180 rpm for 16 hours. Cells are harvested, resuspended in lysis buffer (50 mM Tris-Cl, 300 mM NaCl, 10% glycerol, 1 mM dithiothreitol [DTT], pH 8.0) and lysed using Emulsiflex C-3 (Avestin). Expressed myrosinases are purified by IMAC Ni-NTA purification followed by Hi-Load Superdex 200 size exclusion column chromatography (GE, Uppsala, Sweden). The purified protein is concentrated and stored at −80° C. Pilot scale protein purification and enzymatic assay is conducted.
(§3) Myrosinase screening assay. The enzymatic reaction is measured for the release of glucose resulting from sinigrin hydrolysis. The reaction is conducted in sodium phosphate-buffered solution supplied in the Amplex® Red Glucose/Glucose Oxidase Assay Kit (Thermo Fisher Scientific, Geel, Belgium). The reaction buffer is prepared at different pH values (6.0, 6.5, 7.4 and 8.0) and at different reaction temperatures (34° C., 37° C., and 40° C.). The reaction is prepared using 0.1 μM purified myrosinase added to 1× Amplex® Red Glucose Assay reaction mixture and was kick-started with the corresponding concentration of sinigrin. The reaction can be measured at 560 nm absorbance and fluorescence (λex=540 nm, λem=590 nm) using a Synergy H1 Multi-Mode microtiter plate reader (BioTek®, Winooski, USA). The reaction initial velocity (VO) is determined and fitted into a Michaelis-Menten curve. Vmax and KM are determined by fitting into the Michaelis-Menten equation (Eq. 1) using GraphPad Prism Software. ^v=Vmax*[Sinigrin]/(KM+[Sinigrin]) (Eq.1)
(§4) Table S1|Myrosinase activity assay screening under various pH and temperature conditions (n=3 independent experiments, each measurement performed in triplicates; mean[…].).

[2] = molecular target: Arabidopsis thaliana myrosinase TGG1 (Arabidopsis thaliana, UniProt P37702); assay: Myrosinase activity assay (glucose release from sinigrin hydrolysis), TGG1
Sequence of Arabidopsis thaliana myrosinase TGG1 (P37702 20-541): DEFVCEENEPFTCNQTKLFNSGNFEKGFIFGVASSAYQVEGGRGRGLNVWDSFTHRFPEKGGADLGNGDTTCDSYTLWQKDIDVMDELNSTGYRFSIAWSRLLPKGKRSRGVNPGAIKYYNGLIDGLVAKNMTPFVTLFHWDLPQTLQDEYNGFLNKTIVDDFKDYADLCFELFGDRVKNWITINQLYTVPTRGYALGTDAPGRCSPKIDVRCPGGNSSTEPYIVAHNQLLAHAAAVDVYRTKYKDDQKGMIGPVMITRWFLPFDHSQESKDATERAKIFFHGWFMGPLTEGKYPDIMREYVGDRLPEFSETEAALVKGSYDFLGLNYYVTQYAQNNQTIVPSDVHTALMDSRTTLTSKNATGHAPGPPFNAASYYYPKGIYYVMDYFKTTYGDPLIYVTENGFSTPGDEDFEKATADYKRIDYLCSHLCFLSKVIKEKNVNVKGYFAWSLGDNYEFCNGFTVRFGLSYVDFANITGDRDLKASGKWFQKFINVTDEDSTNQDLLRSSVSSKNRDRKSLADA
Experimental: as §1, §2, §3, §4

[3] = molecular target: T1, Brevicoryne brassicae myrosinase BMY1 (Brevicoryne brassicae, UniProt Q95X01); assay: Myrosinase activity assay (glucose release from sinigrin hydrolysis), BMY1
T1 sequence (Q95X01 1-464): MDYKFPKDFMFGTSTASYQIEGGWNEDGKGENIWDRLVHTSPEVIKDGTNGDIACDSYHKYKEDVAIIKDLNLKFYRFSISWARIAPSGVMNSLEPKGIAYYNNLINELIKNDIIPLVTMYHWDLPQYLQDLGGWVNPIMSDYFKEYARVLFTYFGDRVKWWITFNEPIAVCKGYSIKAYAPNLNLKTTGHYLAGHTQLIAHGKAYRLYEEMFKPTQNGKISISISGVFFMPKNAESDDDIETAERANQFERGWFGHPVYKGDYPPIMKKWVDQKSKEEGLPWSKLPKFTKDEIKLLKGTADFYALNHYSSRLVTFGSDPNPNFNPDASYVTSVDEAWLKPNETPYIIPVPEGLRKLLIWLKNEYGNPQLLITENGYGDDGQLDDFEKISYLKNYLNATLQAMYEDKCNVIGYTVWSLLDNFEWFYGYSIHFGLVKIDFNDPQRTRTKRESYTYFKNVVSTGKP
Experimental: as §1, §2, §3, §4

[4] = test system: Brassica oleacea myrosinase A6; assay: Myrosinase activity assay (glucose release from sinigrin hydrolysis), A6
Description: (§5) In a preferred embodiment, the myrosinases derived from Armoracia rusticana (I1) and Brassica oleacea (A6) have a better stability and catalytic efficiency in various temperatures and pH values when compared with those derived from BMY1 and TGG1 (Table 1). In a preferred illustrative embodiment I1 myrosinase is selected owing to its Km value and improved kcat at the colorectal ambient temperature and pH (FIG. 2c, 2d and Table 1). By comparing the modeled-I1 myrosinase protein structure against that of the BMY1 myrosinase, the critical side chain residues involved in glucose-ring recognition and the glutamic acid that served as a nucleophile during catalysis are conserved. According to the claimed invention the improved catalytic efficiency of the I1 myrosinase is correlated to its pI value (pI=7.90) and the overall positively charged surface (FIG. 8) that contributes to better structural stability.
as §2, §3, §4

[5] = test system: myrosinase C9 (plant-derived myrosinase orthologue); assay: Myrosinase activity assay (glucose release from sinigrin hydrolysis), C9
Experimental: as §1, §2, §3, §4

[6] = test system: myrosinase Q5 (plant-derived myrosinase orthologue); assay: Myrosinase activity assay (glucose release from sinigrin hydrolysis), Q5
Experimental: as §1, §2, §3, §4

[7] = molecular target: T2, Armoracia rusticana myrosinase I1, SEQ ID NO: 6 (Armoracia rusticana, UniProt I1TIJ2); assay: Myrosinase activity assay (glucose release from sinigrin hydrolysis), I1
T2 construct: elsewhere used as YebF-I1 fusion
T2 sequence (I1TIJ2 23-510): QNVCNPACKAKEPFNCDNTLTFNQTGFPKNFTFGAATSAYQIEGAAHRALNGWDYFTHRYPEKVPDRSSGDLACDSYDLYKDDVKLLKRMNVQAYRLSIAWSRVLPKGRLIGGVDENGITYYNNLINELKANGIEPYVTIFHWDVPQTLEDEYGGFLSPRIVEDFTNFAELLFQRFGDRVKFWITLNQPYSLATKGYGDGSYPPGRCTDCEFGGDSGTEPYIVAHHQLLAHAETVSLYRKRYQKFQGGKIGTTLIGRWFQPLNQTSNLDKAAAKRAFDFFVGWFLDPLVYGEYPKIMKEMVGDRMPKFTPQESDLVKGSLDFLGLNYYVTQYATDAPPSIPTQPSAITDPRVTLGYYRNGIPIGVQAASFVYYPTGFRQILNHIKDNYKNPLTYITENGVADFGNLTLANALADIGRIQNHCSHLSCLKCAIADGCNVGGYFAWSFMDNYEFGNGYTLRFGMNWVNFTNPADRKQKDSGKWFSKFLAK
Description: as §5, §2, §3, §4

C=CC/C(=N/OS(=O)(=O)O)S[C@@H]1O[C@H](CO)[C@@H](O)[C@H](O)[C@H]1O [sinigrin]
Km ([1]; pH 6.0, 37° C.): 111 ± 3 µM | kcar ([1]; pH 6.0, 37° C.): 3.0 ± 0.6 s⁻¹ | Km ([1]; pH 6.5, 37° C.): 291 ± 5 µM | kcar ([1]; pH 6.5, 37° C.): 7.8 ± 0.8 s⁻¹ | kcar ([1]; pH 7.4, 34° C.): 13.0 ± 3.5 s⁻¹ | kcar ([1]; pH 7.4, 37° C.): 3.8 ± 1.5 s⁻¹ | Km ([1]; pH 7.4, 40° C.): 893 ± 23 µM | kcar ([1]; pH 7.4, 40° C.): 12.3 ± 3.9 s⁻¹ | Km ([1]; pH 8.0, 37° C.): 473 ± 6 µM | kcar ([1]; pH 8.0, 37° C.): 4.4 ± 1.0 s⁻¹ | kcar ([2]; pH 6.0, 37° C.): 10.2 ± 0.6 s⁻¹ | kcar ([2]; pH 6.5, 37° C.): 8.6 ± 1.6 s⁻¹ | kcar ([2]; pH 7.4, 34° C.): 6.9 ± 1.6 s⁻¹ | kcar ([2]; pH 7.4, 37° C.): 6.4 ± 1.1 s⁻¹ | kcar ([2]; pH 7.4, 40° C.): 6.5 ± 0.2 s⁻¹ | kcar ([2]; pH 8.0, 37° C.): 4.3 ± 0.7 s⁻¹ | kcar ([3]; pH 6.0, 37° C.): 5.7 ± 0.8 s⁻¹ | kcar ([3]; pH 6.5, 37° C.): 11.8 ± 0.4 s⁻¹ | kcar ([3]; pH 7.4, 34° C.): 6.9 ± 0.4 s⁻¹ | kcar ([3]; pH 7.4, 37° C.): 6.0 ± 0.7 s⁻¹ | kcar ([3]; pH 7.4, 40° C.): 9.1 ± 0.8 s⁻¹ | kcar ([3]; pH 8.0, 37° C.): 5.6 ± 0.6 s⁻¹ | Km ([4]; pH 6.0, 37° C.): 68 ± 2 µM | kcar ([4]; pH 6.0, 37° C.): 6.6 ± 1.3 s⁻¹ | Km ([4]; pH 6.5, 37° C.): 187 ± 13 µM | kcar ([4]; pH 6.5, 37° C.): 15.0 ± 1.5 s⁻¹ | Km ([4]; pH 7.4, 34° C.): 47 ± 5 µM | kcar ([4]; pH 7.4, 34° C.): 7.2 ± 1.3 s⁻¹ | Km ([4]; pH 7.4, 37° C.): 44 ± 4 µM | kcar ([4]; pH 7.4, 37° C.): 5.2 ± 0.9 s⁻¹ | Km ([4]; pH 7.4, 40° C.): 189 ± 39 µM | kcar ([4]; pH 7.4, 40° C.): 9.7 ± 1.3 s⁻¹ | Km ([4]; pH 8.0, 37° C.): 142 ± 22 µM | kcar ([4]; pH 8.0, 37° C.): 9.3 ± 1.2 s⁻¹ | Km ([5]; pH 6.0, 37° C.): 439 ± 97 µM | kcar ([5]; pH 6.0, 37° C.): 5.6 ± 0.8 s⁻¹ | Km ([5]; pH 6.5, 37° C.): 290 ± 31 µM | kcar ([5]; pH 6.5, 37° C.): 9.0 ± 0.9 s⁻¹ | Km ([5]; pH 7.4, 34° C.): 384 ± 28 µM | kcar ([5]; pH 7.4, 34° C.): 11.2 ± 2.4 s⁻¹ | Km ([5]; pH 7.4, 37° C.): 38 ± 2 µM | kcar ([5]; pH 7.4, 37° C.): 3.4 ± 0.6 s⁻¹ | Km ([5]; pH 7.4, 40° C.): 352 ± 68 µM | kcar ([5]; pH 7.4, 40° C.): 9.0 ± 0.9 s⁻¹ | Km ([5]; pH 8.0, 37° C.): 842 ± 80 µM | kcar ([5]; pH 8.0, 37° C.): 10.7 ± 1.3 s⁻¹ | Km ([6]; pH 6.0, 37° C.): 184 ± 15 µM | kcar ([6]; pH 6.0, 37° C.): 4.6 ± 1.1 s⁻¹ | Km ([6]; pH 6.5, 37° C.): 127 ± 21 µM | kcar ([6]; pH 6.5, 37° C.): 4.9 ± 1.2 s⁻¹ | Km ([6]; pH 7.4, 34° C.): 225 ± 13 µM | kcar ([6]; pH 7.4, 34° C.): 2.9 ± 1.4 s⁻¹ | Km ([6]; pH 7.4, 37° C.): 25 ± 7 µM | kcar ([6]; pH 7.4, 37° C.): 2.1 ± 1.6 s⁻¹ | Km ([6]; pH 7.4, 40° C.): 49 ± 14 µM | kcar ([6]; pH 7.4, 40° C.): 3.7 ± 1.6 s⁻¹ | Km ([6]; pH 8.0, 37° C.): 154 ± 24 µM | kcar ([6]; pH 8.0, 37° C.): 2.8 ± 1.1 s⁻¹ | kcar ([7]; pH 6.0, 37° C.): 6.6 ± 0.7 s⁻¹ | kcar ([7]; pH 6.5, 37° C.): 7.9 ± 1.1 s⁻¹ | kcar ([7]; pH 7.4, 34° C.): 3.4 ± 0.7 s⁻¹ | kcar ([7]; pH 7.4, 37° C.): 15.0 ± 1.5 s⁻¹ | kcar ([7]; pH 7.4, 40° C.): 15.2 ± 1.5 s⁻¹ | kcar ([7]; pH 8.0, 37° C.): 6.6 ± 3.1 s⁻¹
